The source of these data is EP1674110A1, “Inhibition of bradykinin release” (priority 1999, dated 2000).

One experiment has as its system BAEC monolayers. As to the kind of experiment: EC intracellular free Ca2+ (fluo-3) after CD18 cross-linking of PMNs. Format: cell-based, bovine. Particulars: endothelial cells pre-treated with BAPTA AM; concentration not given. The procedure:
The Ca^2+ sensitive fluorescent probe fluo-3/AM (Molecular Probes Europe BV, Leiden, The Netherlands) is used for determination of changes in EC intracellular free Ca^2+. Confluent BAEC monolayers on filters are incubated for 30 min at 37°C with fluo-3/AM (3µM in HBSS containing 2% FCS and 10 mM HEPES) added to both the apical and basolateral surface. The monolayers are washed three times and incubated with fresh HBSS in the dark for 20 min at room temperature to allow complete hydrolysis of the dye ester. Anti-CD18 or anti-L-selectin mAb treated PMNs are added to ECs and receptor cross-linking is induced with secondary mAb as described above. In separate experiments, PMN secretion containing medium (see above) is used to stimulate ECs in the absence of PMNs. Changes in EC [Ca^2+]i in response to these stimuli are measured through continuous registration of fluorescence intensity with a laser-scanning confocal imaging system (Insight Plus; Meridian Instruments Inc., Okemon, Michigan).
Monolayers of endothelial cells are labelled with the Ca^2+-sensitive fluorophore fluo-3, and stimulus-induced changes in EC [Ca^2+]i monitored by confocal laser scanning microscopy. Adding anti-CD18 treated PMNs to the EC monolayer caused no change in EC [Ca^2+]. […]

The subject of experiment [1] is endothelial cells (HUVEC or BAEC). As to the kind of experiment: Transendothelial electrical resistance (TEER) after CD18 cross-linking of PMNs. It counts as cell-based. Particulars: endothelial cells pre-treated with BAPTA AM; concentration not given. The procedure:
Human umbilical vein endothelial cells (HUVEC) and bovine aorta endothelial cells (BAEC) are isolated and cultured as previously described (Gautam et al. 1998, Brit. J. Pharm. 125:1109-1114). HUVEC or BAEC in the first to fifth passages are detached by brief (2 min) trypsin-EDTA treatment (0.25% trypsin/0.01 % EDTA) and replated onto either 0.2 µm pore size Anopore inorganic membrane or 3.0 µm pore size polycarbonate filters (Tissue Culture inserts, 10 mm; NUNC, Roskilde, Denmark). In order to promote cellular differentiation and enhance attachment of endothelial cells (ECs), the filters are pretreated with 50 µl Biomatrix I (167 µg/ml) and air-dried. […] The EC are grown to confluent monolayers, as assessed by daily microscopic observation and measurement of the electrical resistance across the monolayer (Gautam et al. 1998, Brit. J. Pharm. 125:1109-1114).
Two different approaches are used for assessment of stimulation-induced changes in EC permeability. […] Electrical resistance across the EC monolayer is measured at 37°C with electrodes in each compartment exactly positioned in relation to each other and to the monolayer. The electrical resistance of individual EC monolayers is obtained by subtracting the resistance of the corresponding naked filter coated with Biomatrix as measured prior to seeding of the endothelial cells. […]

In experiment [2] the target is HBP (heparin-binding protein, CAP37). Particulars: lipid A component of LPS and endotoxin binding to HBP; read-out: Kass (converted); cited from earlier work.

In the case of `CC(=O)OCOC(=O)CN(CC(=O)OCOC(C)=O)c1ccccc1OCCOc1ccccc1N(CC(=O)OCOC(C)=O)CC(=O)OCOC(C)=O` [BAPTA AM], the “rise in EC free intracellular Ca^2+ in response to CD18 cross-linking” value in the experiment with BAEC monolayers is listed as “completely inhibited”. Also, in experiment [1], the “change in TEER in response to CD18 cross-linking” value is recorded as “completely inhibited”.

For the molecule lipid A, in experiment [2], the Kd was 1.25 nM.
